The record followed here is patent publication US20120225093A1, “Abrogating HIV-1 Infection via Drug-Induced Reactivation of Apoptosis” (UNIVERSITY OF MEDICINE AND DENTISTRY OF NEW JERSEY, priority 2010, published 2012).

One assay has as its system H9-HIV cells. Briefly: 89-kDa PARP fragment by flow cytometry in H9-HIV cells. It counts as cell-based. The conditions noted are these: 30 μM CPX, 24 hr. On the procedure: Intracellular antigens were determined, as geometric means of fluorescence, by flow cytometric analysis using a BD FACSCalibur™ and its BD FACStation System™ (Becton Dickinson; San Jose, Calif.). Intracellular antigens were stained according to the instrument producer's instructions. Anti-HIV-1 Tat antibody was from Abcam Inc. (Cambridge, Mass.); anti-HIV-1 Vpr from Santa Cruz Biotechnology (Santa Cruz, Calif.); anti-HIV-1 Rev from Advanced Biotechnologies Inc. (Columbia, Md.); anti-HIV-1 p24 (KC57) from Beckman Coulter, Miami, Fla.; monoclonal C92-605 anti-human caspase-3 (active form) from Pharmingen (BD Biosciences, San Diego, Calif.); monoclonal F21-852 anti-human poly (ADP-ribose) polymerase (caspase-cleaved 89-kDa fragment); and monoclonal 6C8 anti-human Bcl-2 from Becton Dickinson (BD Biosciences; San Diego, Calif.).
To determine whether the differential effects of the drugs extend into late apoptosis, PARP fragmentation in H9 and H9-HIV cells was measured. CPX caused an ˜8-fold increase in H9-HIV cells positive for 89-kDa PARP, compared to a ˜2 fold increase in H9 cells (FIG. 9A). By 24 hr, twice as many cells stained positive for 89-kDa PARP in the infected cultures as in uninfected cultures (27% compared to 14%; FIG. 9B). […] It is concluded that the retroviral suppression of initiation and execution of apoptosis is reversed by the drugs and transformed into enhanced susceptibility of HIV-infected cells to apoptosis.

The subject of the next assay is HIV-1 LTR. The assay can be described thus: RNase protection assay of pLTR-FF transcripts (elongation, RNA stability). Type of assay: cell-based. As to the method:
RPA was performed with 10 μg of cytoplasmic RNA and 5 μg of nuclear RNA, using the RPAIII kit from Ambion (Austin, Tex.) according to the manufacturer's instructions. Synthesis of radiolabeled RNA and protection assays were performed as described in Young et al. Mol Cell Biol 2003, 23:6373-6384. To generate antisense RNA probe against the HIV-1 major splice site, firefly luciferase and Renilla luciferase pBSII-KS+HIV (+80-341), pSP-luc and pSP-rluc were linearized with HindIII, XbaI and BsaI, respectively. The resulting probes were 309, 390 and 245 nt long, respectively. […]
Results of the deletion analysis implied that sensitivity to the drugs is conferred by the promoter or another feature in the HIV-1 LTR. […] Nuclear and cytoplasmic RNA was analyzed in RNase protection assays using a probe complementary to the promoter-proximal region of HIV transcripts (FIG. 6A). […]
To examine the possibility that the drugs decrease the stability of RNA transcribed from the HIV promoter, cells transfected with pLTR-FF were incubated in the presence or absence of CPX. Actinomycin D was added to some cultures 12 hr later to block further transcription, and FF RNA was monitored by RPA at intervals thereafter (FIG. 6D, top panel). FF RNA levels were quantified and normalized to the levels at 12 hr (FIG. 6D, bottom panel). […]

For another assay, the system named is HIV-infected PBMCs. Briefly: TUNEL apoptosis in HIV-1 exposed PBMC cultures. It counts as cell-based, human. The conditions noted are these: CPX 30 μM. As to the method: Uninfected PBMCs were co-incubated with infected PBMC stock in 24-well microplates at 2 ml/well Medium B, at a 10:1 ratio of uninfected-to-infected cells, and a total cell number of 1×10^6. Cultures were maintained and assayed for 6 consecutive days. CPX or Agent P2 was added at the time of inoculation or 12 hr later. Leaving the cell layer undisturbed, half the medium in each well was replenished every day, with concurrent adjustment of compound concentration. On each day during the 6-day experiments, a set of wells was harvested: the cells were processed for determination of viability and apoptosis, and the cell-free supernatants were stored at −80° C. for p24 and viral RNA measurements. […]
The potential across the mitochondrial membrane of live cells was determined flow-cytometrically with the lipophilic cationic fluorochrome JC-1 (5,5′,6,6′-tetrachloro-1,1′,3,3′-tetraethylbenzimidazolcarbocyanine iodide) immediately after sample harvest (BD™ Mitoscreen Kit, BD Biosciences; San Diego, Calif.). DNA fragmentation was quantified flow-cytometrically, using a TUNEL (terminal deoxynucleotide transferase dUTP nick end-labeling) assay (APO-BRDU™; Phoenix Flow Systems; San Diego, Calif.) and a dual-color assay for annexin V binding and 7-AAD exclusion (Annexin V-PE 7-AAD Apoptosis Detection Kit I™; BD Biosciences Pharmingen, San Jose, Calif.). […]

For `Cc1cc(C2CCCCC2)n(O)c(=O)c1` [CPX, 6-cyclohexyl-1-hydroxy-4-methylpyridin-2[1H]-one], in the assay on H9-HIV cells, the “89-kDa PARP fluorescence intensity, infected versus uninfected” value is reported as “approximately one order of magnitude higher” and the “cells positive for 89-kDa PARP” value stood at 27%. The “increase in cells positive for 89-kDa PARP” value in the assay on H9-HIV cells (relative to untreated) is recorded as about 8 fold. Further, the “rate of FF RNA decay” value in the assay on HIV-1 LTR (actinomycin D added at 12 hr) was “not affected”. Besides, in the assay with HIV-1 LTR (in the presence of CPX), the “FF mRNA level at 12 hr post-transfection, less than control” value is on record as about 50%. For the same compound, the “apoptotic (TUNEL-positive) cells” value with HIV-infected PBMCs (144 hr after inoculation) is recorded as 71.8% (±8.8%). Further, the “increase in proportion of TUNEL-positive PBMCs” value in the assay on HIV-infected PBMCs (HIV-infected cultures) is listed as about 10 fold.
